KD, Kd and IC50 data for 8 molecules are collected here from PMC12693167, “Design, Synthesis and Anticancer Activity of 6-Substituted-1-(3,4,5-trimethoxyphenyl)-1H-indole Against Tubulin Polymerisation” (Molecules, 2025).

Assay [1] concerns the target T1, purified porcine brain tubulin (Sus scrofa, UniProt P02554).
T1 construct: purified porcine brain tubulin; from tissue; host or cells: porcine brain
Description: Biolayer interferometry (BLI) binding to tubulin. As to conditions: immobilized tubulin, 1:1 binding model, mean ± SD, triplicate. As to the method: To detect the direct interaction between the synthesized compounds and tubulin, biolayer interferometry (BLI) experiments were performed using purified porcine brain tubulin immobilized on Super Streptavidin (SSA) biosensor [30]. […] Association and dissociation kinetics were monitored in real time, and equilibrium dissociation constants (KD) were determined by global fitting of the sensorgrams to a 1:1 binding model. All measurements were conducted in triplicate, and results are reported as mean ± SD.
BLI assays were performed on an Octet RED96 instrument (FortéBio, Pall Life Sciences, Menlo Park, CA, USA) at 25 °C in PBS buffer supplemented with 0.02% (v/v) Tween-20 as the running buffer. Biotinylated tubulin proteins (3 μg/mL) were immobilized onto Super Streptavidin (SSA) biosensors. Association and dissociation were monitored for 60 s each. […] Reference subtraction was performed using sensors incubated in running buffer without protein loading to correct for baseline drift. Data were analyzed using Octet Data Analysis software (version 9.0), and equilibrium dissociation constants (KD) were determined by fitting the curves to a 1:1 binding model. All measurements were performed in triplicate, and results are reported as mean ± SD.
BLI assays were performed on an Octet RED96 instrument (FortéBio, Pall Life Sciences) at 25 °C in PBS buffer supplemented with 0.02% (v/v) Tween-20 as the running buffer. Biotinylated tubulin proteins (3 μg/mL) were immobilized onto Super Streptavidin (SSA) biosensors. Association and dissociation were monitored for 60 s […]
Reference subtraction was performed using sensors incubated in running buffer without protein loading to correct for baseline drift. Data were analyzed using Octet Data Analysis software (version 9.0), and equilibrium dissociation constants (KD) were determined by fitting the curves to a 1:1 binding model. All measurements were performed in triplicate, and results are reported as mean ± SD.

The subject of assay [2] is MCF-7 cells. The experiment in a line: CCK-8 antiproliferative assay, MCF-7. It counts as cell-based. As to conditions: Homo sapiens, MCF7; cell viability (CCK-8), 48 h. As to the method: (§1) To evaluate the anticancer potential of the synthesized compounds, a panel of six human and murine cancer cell lines representing different tissue origins was selected, including MCF-7 (human breast adenocarcinoma), MDA-MB-231 (human triple-negative breast cancer), A549 (human non-small cell lung cancer), HeLa (human cervical cancer), A375 (human melanoma), and B16-F10 (murine melanoma) (Table 2). […] DMSO was used as the vehicle control, and all experiments were performed in triplicate to ensure reproducibility.
(§2) Human breast cancer cells (MCF-7), human lung cancer cells (A549), human cervical cancer cells (HeLa), human triple-negative breast cancer cells (MDA-MB-231), and human malignant melanoma cells (A375) were cultured in DMEM. Mouse melanoma cells (B16F10) were maintained in RPMI-1640 medium. All media were supplemented with 10% fetal bovine serum and 1% penicillin-streptomycin (Life Technologies, Carlsbad, CA, USA) and maintained at 37 °C in a humidified atmosphere with 5% CO2.
(§3) The cytotoxicity of the test compounds was evaluated against MCF-7, A549, HeLa, MDA-MB-231, A375, and B16F10 using the CCK-8 assay. Cells were seeded into 96-well plates at a density of 5000 cells/well. After removing the medium, 100 μL of medium with 0.1% DMSO containing test compounds at different concentrations was added to each well and incubated at 37 °C for another 48 h. The CCK-8 solution was added and incubated for another 1 h, and then, the absorbance was detected with a microplate reader at a wavelength of 450 nm. The IC50 values were calculated by nonlinear regression analysis using GraphPad Prism 8.0.2. All the experiments were repeated at least three times.
For orientation: Tetrazolium dyes change colour on reduction, which living cells bring about.

Assay [3] concerns MDA-MB-231 cells. Description: CCK-8 antiproliferative assay, MDA-MB-231. The following applies: Homo sapiens, cell viability (CCK-8), 48 h. It counts as cell-based. As to the method:
as §1, §2, §3

Assay [4] concerns A549 cells. Description: CCK-8 antiproliferative assay, A549. The assay is classed as cell-based. The following applies: Homo sapiens, cell viability (CCK-8), 48 h. As to the method: as §1, §2, §3
The test system of assay [5] is HeLa cells. The experiment in a line: CCK-8 antiproliferative assay, HeLa. It counts as cell-based. The following applies: Homo sapiens, cell viability (CCK-8), 48 h. As to the method:
as §1, §2, §3

Assay [6] has as its system A375 cells. Description: CCK-8 antiproliferative assay, A375. It counts as cell-based. As to conditions: Homo sapiens, A-375; cell viability (CCK-8), 48 h. As to the method: as §1, §2, §3
Assay [7] concerns B16-F10 cells. The experiment in a line: CCK-8 antiproliferative assay, B16-F10. It counts as cell-based, murine. The following applies: Mus musculus, cell viability (CCK-8), 48 h. As to the method: as §1, §2, §3

As a reminder, the Kd is a measure of binding affinity in units of concentration. One may read the IC50 as the concentration that gives 50% inhibition. A low value points to greater potency in that assay.

T1 sequence (P02554 whole entry): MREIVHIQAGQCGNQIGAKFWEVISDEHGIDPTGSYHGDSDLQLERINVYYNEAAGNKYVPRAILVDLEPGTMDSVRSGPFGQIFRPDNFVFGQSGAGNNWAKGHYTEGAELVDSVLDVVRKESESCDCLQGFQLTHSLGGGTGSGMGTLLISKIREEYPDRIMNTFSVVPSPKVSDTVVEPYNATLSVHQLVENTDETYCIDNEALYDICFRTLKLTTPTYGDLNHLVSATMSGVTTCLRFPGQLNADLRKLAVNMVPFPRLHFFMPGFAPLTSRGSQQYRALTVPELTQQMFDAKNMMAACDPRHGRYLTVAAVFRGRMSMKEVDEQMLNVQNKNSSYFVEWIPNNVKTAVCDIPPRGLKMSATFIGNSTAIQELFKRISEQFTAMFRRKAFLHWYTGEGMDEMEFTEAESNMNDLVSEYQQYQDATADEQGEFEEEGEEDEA
T1 sequence (P02550 whole entry partner): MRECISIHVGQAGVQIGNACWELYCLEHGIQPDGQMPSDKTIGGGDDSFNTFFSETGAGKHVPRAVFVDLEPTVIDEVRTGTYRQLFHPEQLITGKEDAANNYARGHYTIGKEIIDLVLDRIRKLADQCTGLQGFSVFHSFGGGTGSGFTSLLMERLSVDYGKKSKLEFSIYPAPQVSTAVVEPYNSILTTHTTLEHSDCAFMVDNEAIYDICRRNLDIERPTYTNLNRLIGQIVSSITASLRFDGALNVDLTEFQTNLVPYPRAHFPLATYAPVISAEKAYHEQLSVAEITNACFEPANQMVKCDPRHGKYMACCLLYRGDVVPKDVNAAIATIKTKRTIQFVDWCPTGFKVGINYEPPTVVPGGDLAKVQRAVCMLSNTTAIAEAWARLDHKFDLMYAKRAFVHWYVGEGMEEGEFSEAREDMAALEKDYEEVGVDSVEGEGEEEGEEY

For `COc1cc(-n2ccc3ccc(-c4nc5ccccc5s4)cc32)cc(OC)c1OC` [3p, 2-(1-(3,4,5-trimethoxyphenyl)-1H-indol-6-yl)benzo[d]thiazole], in assay [1], the KD entry is listed as “undetectable binding”. Further, the Kd in assay [1] was more than 200 µM. Further, the IC50 in assay [2], in assay [3], in assay [4], in assay [5], in assay [6] and in assay [7] was more than 100 µM throughout.
Take `COc1cc(-n2ccc3ccc(-c4cccc(C#N)c4)cc32)cc(OC)c1OC` [3b, 3-(1-(3,4,5-trimethoxyphenyl)-1H-indol-6-yl)benzonitrile]: in assay [1], the KD entry is given as “low micromolar range”. This molecule showed a Kd in assay [1] of 29 ± 4.1 µM. Also, the half-maximal inhibitory concentration (IC50) in assay [2] amounted to 3.33 ± 0.28 µM; in assay [3], 42.9 ± 3.13 µM; in assay [4], 41.2 ± 3.42 µM; in assay [5], 38.5 ± 2.25 µM; in assay [6] it was 27.5 ± 2.5 µM; in assay [7] it was 3.78 ± 0.14 µM.
In the case of `COc1cc(-n2ccc3ccc(-c4ccc(C(C)C)cc4)cc32)cc(OC)c1OC` [3k, 6-(4-isopropylphenyl)-1-(3,4,5-trimethoxyphenyl)-1H-indole], the KD entry in assay [1] is recorded as “undetectable binding”. Besides, in assay [1], the Kd was more than 200 µM. Moreover, the half-inhibitory concentration (IC50) in assay [2], in assay [3], in assay [4], in assay [5], in assay [6] and in assay [7] was more than 100 µM throughout.
In turn, `COc1cc(-n2ccc3ccc(-c4ccccc4)cc32)cc(OC)c1OC` [3a, 6-phenyl-1-(3,4,5-trimethoxyphenyl)-1H-indole] showed a Kd in assay [1] of 39 ± 2.6 µM. The IC50 is 10.1 ± 0.68 µM in assay [2]; 78.92 ± 0.57 µM in assay [3]; 36.6 ± 1.78 µM in assay [4]; more than 100 µM in assay [5]; 1.16 ± 0.12 µM in assay [6]; 45.4 ± 1.11 µM in assay [7].
Take `CCCCc1ccc(-c2ccc3ccn(-c4cc(OC)c(OC)c(OC)c4)c3c2)cc1` [3i, 6-(4-butylphenyl)-1-(3,4,5-trimethoxyphenyl)-1H-indole]: the KD entry in assay [1] was “undetectable binding”. Further, in assay [1], the equilibrium dissociation constant (Kd) is more than 200 µM. Also, the IC50 in assay [2], in assay [3], in assay [4], in assay [5], in assay [6] and in assay [7] was more than 100 µM each time.
Molecule `CCc1ccc(-c2ccc3ccn(-c4cc(OC)c(OC)c(OC)c4)c3c2)cc1` [3e, 6-(4-ethylphenyl)-1-(3,4,5-trimethoxyphenyl)-1H-indole] displayed a Kd in assay [1] of 110 ± 14.5 µM. For the same molecule, the IC50 in assay [2], in assay [3], in assay [4], in assay [5], in assay [6] and in assay [7] was more than 100 µM in each case.
For the molecule `COc1cc(-n2ccc3ccc(-c4cccc(C)c4)cc32)cc(OC)c1OC` [3c, 6-(m-tolyl)-1-(3,4,5-trimethoxyphenyl)-1H-indole], the KD result in assay [1] was “low micromolar range”. The same molecule gave a Kd in assay [1] of 23 ± 2.12 µM. Besides, the IC50 is 9.15 ± 0.21 µM in assay [2]; 37.7 ± 0.89 µM in assay [3]; 92.4 ± 8.58 µM in assay [4]; 66.5 ± 6.21 µM in assay [5]; 53.2 ± 4.06 µM in assay [6]; 59.2 ± 5.86 µM in assay [7].
Regarding `COc1cc(-n2ccc3ccc(-c4ccc(SC)cc4)cc32)cc(OC)c1OC` [3j, 6-(4-(methylthio)phenyl)-1-(3,4,5-trimethoxyphenyl)-1H-indole], the KD result in assay [1] is listed as “undetectable binding”. Further, in assay [1], the Kd was more than 200 µM. Besides, the IC50 in assay [2], in assay [3], in assay [4], in assay [5], in assay [6] and in assay [7] was more than 100 µM throughout.
